Publication PMC10674780, “In Vitro and In Vivo Effects of Synthesis Novel Phenoxyacetamide Derivatives as Potent Apoptotic Inducer against HepG2 Cells through PARP-1 Inhibition” (Pharmaceuticals, 2023)

Target: T1, PARP-1 (Homo sapiens, UniProt P09874)
T1 construct: gene PARP1
Experiment: PARP-1 inhibition assay kit (Cat No. […])
Type: biochemical

T1 sequence (P09874 2-1014): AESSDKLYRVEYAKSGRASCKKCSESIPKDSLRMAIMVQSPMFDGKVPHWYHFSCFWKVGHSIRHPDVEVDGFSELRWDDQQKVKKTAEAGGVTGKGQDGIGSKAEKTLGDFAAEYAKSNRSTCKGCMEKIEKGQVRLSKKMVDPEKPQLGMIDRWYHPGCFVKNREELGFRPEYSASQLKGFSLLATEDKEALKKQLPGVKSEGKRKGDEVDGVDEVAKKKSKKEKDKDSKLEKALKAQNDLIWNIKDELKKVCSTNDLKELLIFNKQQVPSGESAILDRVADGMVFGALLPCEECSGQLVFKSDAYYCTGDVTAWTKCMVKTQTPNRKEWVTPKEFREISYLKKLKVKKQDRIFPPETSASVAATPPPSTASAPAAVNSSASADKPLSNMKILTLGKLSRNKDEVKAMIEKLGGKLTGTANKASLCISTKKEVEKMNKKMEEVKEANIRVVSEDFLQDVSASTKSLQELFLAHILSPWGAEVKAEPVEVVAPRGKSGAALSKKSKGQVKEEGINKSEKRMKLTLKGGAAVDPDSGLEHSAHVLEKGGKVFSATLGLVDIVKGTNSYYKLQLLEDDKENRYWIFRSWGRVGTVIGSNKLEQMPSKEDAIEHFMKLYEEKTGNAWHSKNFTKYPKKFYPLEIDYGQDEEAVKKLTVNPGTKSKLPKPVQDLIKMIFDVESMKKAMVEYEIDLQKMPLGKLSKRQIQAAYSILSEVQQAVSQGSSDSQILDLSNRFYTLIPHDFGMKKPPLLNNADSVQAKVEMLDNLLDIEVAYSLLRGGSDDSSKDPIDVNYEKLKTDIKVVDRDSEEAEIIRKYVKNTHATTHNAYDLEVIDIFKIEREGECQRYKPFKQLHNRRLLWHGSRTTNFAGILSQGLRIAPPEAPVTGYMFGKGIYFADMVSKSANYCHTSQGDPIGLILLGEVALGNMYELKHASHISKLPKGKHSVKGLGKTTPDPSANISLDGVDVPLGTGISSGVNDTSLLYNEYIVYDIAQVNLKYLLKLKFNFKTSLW

## NNC(=O)CNC(=O)COc1cc(Cl)c(Cl)cc1Cl [I, N-(2-hydrazineyl-2-oxoethyl)-2-(2.4.5-trichlorophenoxy) acetamide]
  IC50: 1.52 nM
